Test results: PubChem BioAssay AID624374 (Broad Institute, 2012)
Records with an inconclusive call do not appear. Active and inactive are the calls of the source. How the calls were made is not given here.

The compounds below were run on HEK293 viability counterscreen, plate reader (assay: HEK293 cell viability, dose response, counter-screen for EBV LMP1 inhibitor project, dry powder, set 2 (AID 624374)).
`C[C@H](CO)N1C[C@H](C)[C@@H](CN(C)Cc2ccc(C(F)(F)F)cc2)Oc2ccc(NC(=O)Cc3ccccc3)cc2CC1=O` was tested, and the AC35 was > 35 µM (inactive). `O=C(C[C@@H]1C[C@@H]2c3cc(NS(=O)(=O)c4ccc(F)cc4)ccc3O[C@@H]2[C@@H](CO)O1)NCc1ccc(Oc2ccccc2)cc1` was tested, and the AC35 was 20.8 µM. In the case of `Cc1ccc(S(=O)(=O)N(C)C[C@H]2Oc3cc(C#Cc4ccncc4)ccc3S(=O)(=O)N([C@@H](C)CO)C[C@@H]2C)cc1`, the AC35 is reported as > 35 µM (inactive). With `CC(C)(C)[S@@](=O)N1Cc2cc(C(=O)NCc3ccccc3F)nc(-c3cccc(-c4ccncc4)c3)c2[C@H]1CCO` the AC35 was > 35 µM (inactive).
